Each structure is given as a SMILES string.

The text below walks through data of patent publication US20180369426A1, “COMPOSITIONS COMPRISING FLUORESCENT DYES ASSOCIATED WITH VIRAL COMPONENTS FOR NERVE IMAGING” (priority 2008, published 2018).

This assay concerns footpad nerves. Kind of assay: Mouse footpad injection, ICG fluorescence imaging of nerves (Example 3). To be noted: 10 μL into footpad, imaged 2 hours after injection, back dissected (FIG. 3A). The assay is classed as in vivo. The procedure:
Example 3 is a comparison of imaging with a fluorescent dye alone versus a fluorescent dye bound to the virus. Unless otherwise specified, all images are digital images obtained from a CCD camera.
A mouse ([…]) was briefly anesthetized by halothane inhalation. The right footpad of the mouse was injected with 10 μL of ICG, phosphate buffered saline (PBS) and a virus mutant, HSV-2 ΔRR (“ICG/PBS/HSV-2 ΔRR mixture”). The left footpad was injected with 10 μl of ICG/PBS mixture as a control. The same concentration of ICG was present in both mixtures.
2 hours after footpad injections, the mouse was anesthetized and then euthanized with interperitoneal injection of sodium pentobarbital. ICG fluorescence images were acquired first of the intact mouse and then at various stages of dissection.

On to `CC1(C)C(/C=C/C=C/C=C/C=C2\N(CCCCS(=O)(=O)O)c3ccc4ccccc4c3C2(C)C)=[N+](CCCCS(=O)(=O)[O-])c2ccc3ccccc3c21` [ICG, indocyanine green], for which the “extent of fluorescence after footpad injection” value was “limited to the left foot itself”.
